Reference: US20260256792A1, “TREATMENT OF CHRONIC SPONTANEOUS URTICARIA BY ADMINISTERING (R)-2-[3-[4-AMINO-3-(2-FLUORO-4-PHENOXY-PHENYL)PYRAZOLO[3,4-D]PYRIMIDIN-1-YL]PIPERIDINE-1-CARBONYL]-4-METHYL-4-[4-(OXETAN-3-YL)PIPERAZIN-1-YL]PENT-2-ENENITRILE” (priority 2023, published 2026)

Test system: angioedema in CSU patients
Experiment: Phase 2 CSU study: angioedema activity score over 7 days (AAS7)
Format: in vivo, human
Conditions: 400 mg QPM; for AAS7 Post-baseline Mean (SD) / Participants with AAS7 = 0, Responder n (%) / AAS7 % Change difference for rilzabrutinib vs. placebo LS Mean (95% CI) / AAS7 % Change from baseline LS Mean (SE) / AAS7 Change difference for rilzabrutinib vs. placebo LS Mean (95% CI) / AAS7 Change from baseline LS Mean (SE) / AAS7 = 0, Non-responder n (%) / AAS7 = 0, OR (95% CI) for rilzabrutinib vs. placebo / AAS7 = 0, RRD (%) for rilzabrutinib vs. placebo (95% CI): angioedema at baseline; for Non-responder n (%), AAS7 = 0 / OR (95% CI) for rilzabrutinib vs. placebo, AAS7 = 0 / RRD (%) for rilzabrutinib vs. placebo (95% CI), AAS7 = 0 / Responder n (%), AAS7 = 0: outlier removed
Description: The study comprises a 12 week, randomized, double-blind, placebo-controlled, multi-center, dose-ranging efficacy and safety phase, followed by a 40 week open label extension (OLE) phase (see FIG. 1). The study consists of three phases and an optional OLE phase. […] The weekly angioedema activity score (AAS7) was proposed as a tertiary endpoint. […] Patients were to complete the AAS using the e-diary. The e-diary was to be used once daily on the same time of each day recording of participant's answers to the angioedema activity score over 7 days (AAS7) questionnaire.

Question: Which “AAS7 Post-baseline Mean (SD)” value (Week 8, omalizumab-naïve) does the source give for `CC(C)(C=C(C#N)C(=O)N1CCC[C@@H](n2nc(-c3ccc(Oc4ccccc4)cc3F)c3c(N)ncnc32)C1)N1CCN(C2COC2)CC1` [rilzabrutinib, (R)-2-[3-[4-amino-3-(2-fluoro-4-phenoxy-phenyl)pyrazolo[3,4-d]pyrimidin-1-yl]piperidine-1-carbonyl]-4-methyl-4-[4-(oxetan-3-yl)piperazin-1-yl]pent-2-enenitrile] here?
Answer: Its value is 24.98 (23.29).

Question: And the “Participants with AAS7 = 0, Responder n (%)” value (“Participants … (%)” below) (Week 8, omalizumab-naïve)?
Answer: Its value is 7 (25.9) n (%).

Question: And the “AAS7 % Change difference for rilzabrutinib vs. placebo LS Mean (95% CI)” value (from here on “AAS7 % Change difference … (95% CI)”) (Week 9, ITT)?
Answer: The value was 1.53 (−27.52, 30.59) %.

Question: And the “AAS7 % Change from baseline LS Mean (SE)” value (Week 9, ITT)?
Answer: The value was −48.50 (10.95) %.

Question: What about the “AAS7 Change difference for rilzabrutinib vs. placebo LS Mean (95% CI)” value (shortened to “AAS7 Change difference … (95% CI)”) (Week 9, ITT) of the same compound?
Answer: The value was 2.98 (−7.44, 13.40).

Question: What about the “AAS7 Change from baseline LS Mean (SE)” value (Week 9, ITT) of the same compound?
Answer: Its value is −26.47 (3.93).

Question: What about the “AAS7 Post-baseline Mean (SD)” value (Week 9, ITT) of the same compound?
Answer: Its value is 27.24 (21.46).

Question: And the “Non-responder n (%), AAS7 = 0” value (Week 9, omalizumab-naïve)?
Answer: Its value is 24 (64.9) n (%).

Question: And the “OR (95% CI) for rilzabrutinib vs. placebo, AAS7 = 0” value (Week 9, omalizumab-naïve)?
Answer: The value was 0.520.

Question: What about the “RRD (%) for rilzabrutinib vs. placebo (95% CI), AAS7 = 0” value (“RRD (%) … (95% CI), AAS7 = 0” for short) (Week 9, omalizumab-naïve) of the same compound?
Answer: Its value is −15.0 %.

Question: And the “Responder n (%), AAS7 = 0” value (Week 9, omalizumab-naïve)?
Answer: The value was 13 (35.1) n (%).

Question: And the “AAS7 % Change from baseline LS Mean (SE)” value (Week 9, omalizumab-naïve)?
Answer: The value was −47.25 (11.58) %.

Question: What about the “AAS7 = 0, Non-responder n (%)” value (Week 9, omalizumab-naïve) of the same compound?
Answer: Its value is 22 (81.5) n (%).

Question: What about the “AAS7 = 0, OR (95% CI) for rilzabrutinib vs. placebo” value (“AAS7 = 0, OR (95% CI)” below) (Week 9, omalizumab-naïve) of the same compound?
Answer: Its value is 0.431.

Question: And the “AAS7 = 0, RRD (%) for rilzabrutinib vs. placebo (95% CI)” value (from here on “AAS7 = 0, RRD (%) … (95% CI)”) (Week 9, omalizumab-naïve)?
Answer: Its value is −15.5 %.

Question: And the “AAS7 Post-baseline Mean (SD)” value (Week 9, omalizumab-naïve)?
Answer: Its value is 27.96 (21.62).

Question: And the “Participants … (%)” value (Week 9, omalizumab-naïve)?
Answer: Its value is 5 (18.5) n (%).

Question: And the “AAS7 % Change difference … (95% CI)” value (Week 10, ITT)?
Answer: Its value is −1.14 (−41.08, 38.79) %.

Question: And the “AAS7 % Change from baseline LS Mean (SE)” value (Week 10, ITT)?
Answer: The value was −50.13 (14.94) %.

Question: What about the “AAS7 Change difference … (95% CI)” value (Week 10, ITT) of the same compound?
Answer: Its value is 2.53 (−8.76, 13.81).

Question: What about the “AAS7 Change from baseline LS Mean (SE)” value (Week 10, ITT) of the same compound?
Answer: Its value is −27.81 (4.28).

Question: And the “AAS7 Post-baseline Mean (SD)” value (Week 10, ITT)?
Answer: The value was 26.59 (23.15).

Question: What about the “Non-responder n (%), AAS7 = 0” value (Week 10, omalizumab-naïve) of the same compound?
Answer: Its value is 20 (54.1) n (%).

Question: What about the “OR (95% CI) for rilzabrutinib vs. placebo, AAS7 = 0” value (Week 10, omalizumab-naïve) of the same compound?
Answer: The value was 0.927.

Question: What about the “RRD (%) … (95% CI), AAS7 = 0” value (Week 10, omalizumab-naïve) of the same compound?
Answer: The value was −1.9 %.

Question: What about the “Responder n (%), AAS7 = 0” value (Week 10, omalizumab-naïve) of the same compound?
Answer: The value was 17 (45.9) n (%).

Question: And the “AAS7 = 0, Non-responder n (%)” value (Week 10, omalizumab-naïve)?
Answer: The value was 20 (74.1) n (%).

Question: And the “AAS7 = 0, OR (95% CI)” value (Week 10, omalizumab-naïve)?
Answer: The value was 0.616.

Question: And the “AAS7 = 0, RRD (%) … (95% CI)” value (Week 10, omalizumab-naïve)?
Answer: The value was −9.2 %.

Question: And the “AAS7 Post-baseline Mean (SD)” value (Week 10, omalizumab-naïve)?
Answer: The value was 27.70 (22.96).

Question: And the “Participants … (%)” value (Week 10, omalizumab-naïve)?
Answer: Its value is 7 (25.9) n (%).

Question: What about the “AAS7 % Change difference … (95% CI)” value (Week 11, ITT) of the same compound?
Answer: Its value is 7.61 (−19.90, 35.12) %.

Question: And the “AAS7 Change difference … (95% CI)” value (Week 11, ITT)?
Answer: The value was 5.18 (−6.05, 16.41).

Question: What about the “AAS7 Change from baseline LS Mean (SE)” value (Week 11, ITT) of the same compound?
Answer: The value was −28.68 (4.16).

Question: What about the “AAS7 Post-baseline Mean (SD)” value (Week 11, ITT) of the same compound?
Answer: Its value is 26.34 (24.19).

Question: And the “Non-responder n (%), AAS7 = 0” value (Week 11, omalizumab-naïve)?
Answer: The value was 20 (54.1) n (%).

Question: And the “OR (95% CI) for rilzabrutinib vs. placebo, AAS7 = 0” value (Week 11, omalizumab-naïve)?
Answer: The value was 0.819.

Question: And the “RRD (%) … (95% CI), AAS7 = 0” value (Week 11, omalizumab-naïve)?
Answer: The value was −4.7 %.

Question: And the “Responder n (%), AAS7 = 0” value (Week 11, omalizumab-naïve)?
Answer: The value was 17 (45.9) n (%).

Question: What about the “AAS7 = 0, Non-responder n (%)” value (Week 11, omalizumab-naïve) of the same compound?
Answer: Its value is 19 (70.4) n (%).

Question: And the “AAS7 = 0, OR (95% CI)” value (Week 11, omalizumab-naïve)?
Answer: The value was 0.650.

Question: And the “AAS7 = 0, RRD (%) … (95% CI)” value (Week 11, omalizumab-naïve)?
Answer: The value was −8.6 %.

Question: What about the “AAS7 Post-baseline Mean (SD)” value (Week 11, omalizumab-naïve) of the same compound?
Answer: The value was 27.44 (24.07).

Question: What about the “Participants … (%)” value (Week 11, omalizumab-naïve) of the same compound?
Answer: Its value is 8 (29.6) n (%).

Question: And the “AAS7 % Change difference … (95% CI)” value (Week 12, ITT)?
Answer: The value was 8.18 (−17.80, 34.16) %.

Question: And the “AAS7 % Change from baseline LS Mean (SE)” value (Week 12, ITT)?
Answer: Its value is −54.80 (9.75) %.

Question: And the “AAS7 Change difference … (95% CI)” value (Week 12, ITT)?
Answer: Its value is 6.68 (−4.00, 17.35).

Question: What about the “AAS7 Change from baseline LS Mean (SE)” value (Week 12, ITT) of the same compound?
Answer: The value was −28.63 (4.01).

Question: And the “AAS7 Post-baseline Mean (SD)” value (Week 12, ITT)?
Answer: The value was 24.92 (22.92).

Question: What about the “Non-responder n (%), AAS7 = 0” value (Week 12, omalizumab-naïve) of the same compound?
Answer: Its value is 24 (64.9) n (%).

Question: What about the “OR (95% CI) for rilzabrutinib vs. placebo, AAS7 = 0” value (Week 12, omalizumab-naïve) of the same compound?
Answer: Its value is 0.516.

Question: What about the “RRD (%) … (95% CI), AAS7 = 0” value (Week 12, omalizumab-naïve) of the same compound?
Answer: Its value is −15.0 %.

Question: And the “Responder n (%), AAS7 = 0” value (Week 12, omalizumab-naïve)?
Answer: Its value is 13 (35.1) n (%).

Question: What about the “AAS7 = 0, Non-responder n (%)” value (Week 12, omalizumab-naïve) of the same compound?
Answer: Its value is 21 (77.8) n (%).

Question: What about the “AAS7 = 0, OR (95% CI)” value (Week 12, omalizumab-naïve) of the same compound?
Answer: Its value is 0.571.

Question: And the “AAS7 = 0, RRD (%) … (95% CI)” value (Week 12, omalizumab-naïve)?
Answer: Its value is −11.2 %.

Question: What about the “AAS7 Change difference … (95% CI)” value (Week 12, omalizumab-naïve) of the same compound?
Answer: Its value is 6.41 (−5.00, 17.81).

Question: And the “AAS7 Change from baseline LS Mean (SE)” value (Week 12, omalizumab-naïve)?
Answer: Its value is −26.98 (4.16).

Question: What about the “AAS7 Post-baseline Mean (SD)” value (Week 12, omalizumab-naïve) of the same compound?
Answer: Its value is 25.87 (23.04).
